In US7439359B2, “Small molecule compositions for binding to hsp90” (Sloan-Kettering Institute for Cancer Research, priority 2000, dated 2008):
“Also recorded” adds a separate entry of the source.

What was measured:
[1] = system: MCF-7; assay: Growth inhibition, sulforhodamine B assay; format: cell-based, human; settings: Homo sapiens, MCF7, 72 hours, unit inferred
Description: (§1) Protein Assays. […] Antiproliferative index. […] Tissue Culture IC50 Studies. […] Her2 degradation. Total Protein Assays. […] Binding studies. Solid phase competition assays.

[2] = system: MDA-MB-468; assay: Growth inhibition, sulforhodamine B assay; format: cell-based, human; settings: Homo sapiens, MDA-MB-468, 72 hours, unit inferred
Description: as §1

[3] = system: Raf-1; assay: Raf-1 degradation in SKBr3 cells (immunoblot); format: cell-based, human; settings: SKBr3, 24 hours, 10-250 μM
Protocol: PU4 degraded Her2 at concentrations greater than 50 μM and Raf-1 at a concentration of 250 μM.

[4] = system: Her2, Raf1, Her3, estrogen receptor (ER), Rb, p85 (PI3K), tubulin and actin; assay: Western blot of signaling proteins in SKBr3 and MCF-7 cells (differential degradation); format: cell-based, human
Protocol: Cultures of SKBr3 and MCF-7 cells were treated with varying concentrations (0, 10, 50 100, or 250 μM) of PU3 for 24 hours. The cells were lysed and levels of Her2, Raf1, Her3, estrogen receptor (ER), p85 (PI3K), tubulin and actin were analyzed by western blotting. Reduction in the amount of those signaling proteins which depend on hsp90 for their function (Her2, Raf1, Her3 and ER) was observed. No effect was observed on PI3K, tubulin or actin, proteins which are involved in other signaling pathways.

[5] = system: Hsp90; assay: Hsp90 levels in MCF-7 cells (Western blotting); format: cell-based, human
Protocol: (§2) To test the time course of degradation, MCF-7 cells were treated with 100 μM PU3. Aliquots of cells were recovered at 1.5, 3, 6, 12 and 24 hours, and the amount of Her2, Raf-1, Hsp90 and Trap-1 was evaluated.

[6] = system: Her2; assay: Her2 levels in MCF-7 xenograft tumor tissue (immunoblotting); format: in vivo, Mice; settings: single dose 50, 100 and 500 mg/kg i.p., 12 hours post-treatment
Protocol: (§3) PU3 was tested for its safety and potency in MCF-7 xenografts. […] Mice with established tumors were treated with a single dose of PU3 at doses of 50, 100 and 500 mg/kg i.p. Control mice were treated with DMSO alone. Mice were sacrificed 12 hours post-treatment. For immunoblotting, tumor tissue was homogenized in 2% SDS lysis buffer (pH 7.4).

[7] = system: MCF-7; assay: Growth assay, cell number by coulter counter; format: cell-based, human; settings: MCF-7, FIG. 14
Protocol: (§4) Cell cultures of MCF-7, SKBr3 and MDA-MB-468 cells were treated with PU3 at one of several concentrations or a DMSO control to test for the occurrence of antiproliferative effects. FIGS. 14A-C show the results of cell number as a function of time.

[8] = system: MDA-MB-468; assay: Growth assay, cell number by coulter counter; format: cell-based, human; settings: MDA-MB-468, FIG. 14
Protocol: as §4

[9] = system: SKBr3; assay: Growth assay, cell number by coulter counter; format: cell-based, human; settings: SKBr3, FIG. 14
Protocol: as §4

[10] = Safety in mice with MCF-7 xenografts; format: in vivo; settings: IP
Protocol: as §3

[11] = system: Raf-1; assay: Raf-1 amount in MCF-7 cells, time course; format: cell-based, human; settings: MCF-7, 100 μM, 1.5-24 hours
Protocol: as §2

[12] = system: estrogen receptor; assay: Estrogen receptor degradation in MCF-7 cells (immunoblot); format: cell-based, human; settings: MCF-7, 24 hours, 10-250 μM
[13] = system: Her2; assay: Her2 total protein degradation in MCF-7 cells (immunoblot);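 also: Her2 levels judged by SDS-PAGE western blot of whole-cell lysates probed with anti-Her2 antibody, compared with DMSO vehicle-treated cells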
[14] = target: T1, Trap-1 (Homo sapiens, UniProt Q12931); assay: PU3-biotin on Sepharose-Streptavidin beads; format: binding; settings: immobilized PU3-biotin
T1 sequence (Q12931 60-704): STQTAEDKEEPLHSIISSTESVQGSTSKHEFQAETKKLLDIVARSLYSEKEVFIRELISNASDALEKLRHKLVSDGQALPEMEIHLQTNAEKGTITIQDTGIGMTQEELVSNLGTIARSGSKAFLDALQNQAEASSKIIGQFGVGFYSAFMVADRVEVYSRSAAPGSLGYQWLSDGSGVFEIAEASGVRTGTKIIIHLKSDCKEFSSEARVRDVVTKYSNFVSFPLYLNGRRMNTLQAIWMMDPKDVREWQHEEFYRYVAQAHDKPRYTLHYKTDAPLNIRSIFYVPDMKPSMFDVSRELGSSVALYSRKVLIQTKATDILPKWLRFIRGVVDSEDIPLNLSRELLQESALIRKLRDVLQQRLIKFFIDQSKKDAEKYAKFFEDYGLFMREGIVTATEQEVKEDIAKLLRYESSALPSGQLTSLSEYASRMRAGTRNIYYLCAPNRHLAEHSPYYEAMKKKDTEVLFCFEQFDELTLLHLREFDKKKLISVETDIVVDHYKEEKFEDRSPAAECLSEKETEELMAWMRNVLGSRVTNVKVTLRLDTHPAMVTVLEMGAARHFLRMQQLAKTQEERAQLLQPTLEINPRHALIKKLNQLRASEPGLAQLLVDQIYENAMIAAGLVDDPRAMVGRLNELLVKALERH
Description: (§5) PU3 was linked to Biotin through the middle OH in accordance with the synthetic scheme shown in FIGS. 16A and B. PU3-biotin was immobilized on Sepharose-Streptavidin beads.

[15] = target: T2, Hsp90alpha (Homo sapiens, UniProt P07900); assay: PU3-biotin on Sepharose-Streptavidin beads; format: binding; settings: immobilized PU3-biotin
Description: as §5

[16] = system: MCF-7 cells; assay: Changes in cell morphology; format: cell-based, human; settings: MCF-7 cells exposed to drug
Description: Drugs may also be assayed based upon observed very characteristic changes in cell morphology. […] The increase in size is mostly due to an abundance in cytoplasm. These morphological changes are characteristic of mature epithelial differentiation and reversal of transformation.

[17] = system: Trap1; assay: Trap1 levels in MCF-7 cells (Western blotting); format: cell-based, human; settings: MCF-7, 10-250 μM, 24 hours
[18] = system: PI3 kinase (p85); assay: PI3 kinase (p85) levels in MCF-7 xenograft tumor tissue (immunoblotting); format: in vivo, Mice; settings: single dose 50, 100 and 500 mg/kg i.p., 12 hours post-treatment
Protocol: as §3

[19] = system: Hsp70; assay: Hsp70 levels in MCF-7 cells (Western blotting); format: cell-based, human
[20] = target: T2, Hsp90alpha; assay: Solid phase competition assay with GM-beads, Hsp90 alpha immunoblot; format: binding; parameters: purchased Stressgen SPP-770; settings: competition with immobilized GM; unit inferred; read-out: EC50 Hsp90 α
Protocol: A test was also designed which allows identification of compounds which interact differentially with Hsp90-alpha and Hsp90-beta. […] An Hsp90 protein preparation containing both the alpha and the beta form is incubated with the support in the presence or absence of a compound to be evaluated. […] After washing, the material bound to the support is eluted and the eluate is separated on an SDS/PAGE gel and visualized by immunoblotting with anti-Hsp90-alpha and anti-Hsp90-beta to determine the amount of material bound. Alternatively, if quantitative amounts of the Hsp90 protein preparation or known ratios of alpha to beta forms of Hsp90 are used in the first instance, the unbound material can be analyzed by a similar technique.
as §1

[21] = SKBr3 and MCF-7, 10-250 μM, 24 hours
[22] = MCF-7, 100 μM, within the 24 hour period

CCCCn1c(Cc2cc(OC)c(OC)c(OC)c2)nc2c(N)ncnc21 [PU3]
IC50 [1]: 50 µM | IC50 [2]: 61 µM | Raf-1 degradation [3]: only partial loss of Raf-1 at 250 μM | amount of Her2, Raf1, Her3 and ER [4, 21]: Reduction | amount of PI3K, tubulin or actin [4, 21]: No effect | Her2 degradation and lower-molecular weight HER-2 band (Example 3 summary) ([4]; cell line not stated): rapid decrease in Her2 levels | Raf / Her3 degradation (Example 3 summary) ([4]; cell line not stated): less sensitive to PU3, but are degraded at higher concentrations | synthesis of Hsp90 [5, 22]: significant synthesis | cellular levels of Hsp90 ([5]; MCF-7, 10-250 μM, 24 hours): increases the cellular levels of Hsp90 and Hsp70 | Her2 levels in tumor [6]: reduction in Her2 levels | cell number as a function of time [7]: clearly inhibits growth | cell number as a function of time [8]: clearly inhibits growth | cell number as a function of time [9]: clearly inhibits growth | dose administered without significant signs of toxicity [10]: up to 500 mg/kg | amount of Raf-1 [11]: did not change significantly | estrogen receptor degradation [12]: partially degraded estrogen receptor at concentrations over 50 μM; also recorded: dose-dependent degradation | IC50 ([13]; Homo sapiens, MCF7, read-out: IC50 Her2/MCF-7): 55 µM | Her2 lost ([13]; MCF-7, 100 μM, within 3 hours of administration): more than 50% | interaction with Trap-1 [14]: interaction of PU3 with the Trap-1 and Hsp90alpha | interaction with Hsp90alpha [15]: interaction of PU3 with the Trap-1 and Hsp90alpha | cell morphology [16]: flatten, increase in size and have distinct cellular boundaries | Trap1 level / band recognized by anti-Trap-1 antibody [17]: induces a protein band that migrates more rapidly than Trap-1 | PI3 kinase (p85) levels in tumor [18]: No change | synthesis of Hsp70 [19, 22]: significant synthesis | cellular levels of Hsp70 ([19]; MCF-7, 10-250 μM, 24 hours): increases the cellular levels of Hsp90 and Hsp70 | EC50 [20]: […]
